Reference: patent US20260209294A1, “USE OF RECOMBINANT PROTEIN IN PREPARING DRUG FOR INHIBITING ANEURYSM” (HUAZHONG UNIVERSITY OF SCIENCE AND TECHNOLOGY, priority 2022, published 2026)

Tests used:
[1] = system: TAC-induced carotid artery dilation, remodeling, and inflammation; test: Pirfenidone in TAC model in WT and Aggf1+/- mice; type: in vivo; conditions: for level of AGGF1 in the RCA / level of p-ERK1/2 in the RCA / level of p-Smad3 in the RCA: Western blot; for expansion of the right carotid artery / ratio of the flow velocity between right/left carotid: 3 weeks after TAC; for right carotid artery inflammation (MCP1 and CD68) / right carotid artery vascular remodeling (H&E staining, Sirius red and αSMA): after TAC
From the text: The bar graphs below show the intimal thickness (1st graph), the adventitia thickness (2nd graph), the total carotid artery wall thickness (3rd graph), the medial cell density (4th graph), and the adventitia cell density (5th graph). […] The bar graphs on the right show the percentage of the positive area for the respective immunostaining quantification. […] The GAPDH serves as a loading control. *, P<0.05; **, P<0.01; ***, P<0.001; n=5/group for mouse studies, other sample sizes n=4/group. In FIG. 11, we used VSMC in vitro incubated with TGF-β1 and pirfenidone (PFD). […] In FIG. 12, we used Aggf1 systemic knockout mice for experiments.

[2] = system: VSMC cells; test: VSMC incubated in vitro with TGF-β1 or pirfenidone (PFD): Western blot, ELISA, RT-PCR; type: cell-based; conditions: for level of AGGF1: Western blot, treatment 2 days and 4 days
Protocol: The VSMCs are starved for 12 hours prior to stimulation with TGF-β1. […] Normalized to β-actin. *, P<0.05; **, P<0.01; ***, P<0.001; n≥4/group for the study.
In FIG. 11, we used VSMC in vitro incubated with TGF-β1 and pirfenidone (PFD). […] In FIG. 12, we used Aggf1 systemic knockout mice for experiments.

[3] = Aggf1 heterozygous knockout mice (Aggf1+/-)

Cc1ccc(=O)n(-c2ccccc2)c1 [PFD, pirfenidone]
level of AGGF1 in the RCA ([1]; Aggf1+/- mice after TAC): did not have this effect | level of p-ERK1/2 in the RCA ([1]; Aggf1+/- mice after TAC): did not have this effect | level of p-Smad3 in the RCA ([1]; Aggf1+/- mice after TAC): did not have this effect | expansion of the right carotid artery [1, 3]: did not possess such effects | ratio of the flow velocity between right/left carotid [1, 3]: did not possess such effects | right carotid artery inflammation (MCP1 and CD68) [1, 3]: did not possess such effects | right carotid artery vascular remodeling (H&E staining, Sirius red and αSMA) [1, 3]: did not possess such effects | level of AGGF1 in the RCA ([1]; WT mice after TAC): significantly increase | level of p-ERK1/2 in the RCA ([1]; WT mice after TAC): reduce | level of p-Smad3 in the RCA ([1]; WT mice after TAC): reduce | expansion of the right carotid artery ([1]; WT mice): significantly reduce | ratio of the flow velocity between right/left carotid ([1]; WT mice): significantly reduce | right carotid artery inflammation (MCP1 and CD68) ([1]; WT mice): significantly reduce | right carotid artery vascular remodeling (H&E staining, Sirius red and αSMA) ([1]; WT mice): significantly reduce | mRNA levels of Tgfb1 and Tgfb2 ([2]; RT-PCR, after 2 days): no effect | synthesis of the mature TGF-β1 ([2]; Western blot 2 and 4 days, ELISA 2 days): inhibited | level of AGGF1 [2]: increased

TGF-β1: TGF-β1 used to stimulate VSMC cells in vitro
level of AGGF1 [2]: inhibit
